Experimental data published in US20020072602A1, “Micronized mirtazapine” (priority 2000, published 2002).
“Also recorded” adds a separate entry of the source.

Experiments:
[1] = cited from earlier work
[2] = dissolution of mirtazapine before and after micronization; format: physicochemical; settings: compared to mirtazapine prior to micronization
Source text: FIG. 1 is a graph of the dissolution data of mirtazapine before and after micronization. FIG. 2 is a graph of the percent of dissolved mirtazapine before and after micronization. FIG. 3 is a graph of showing the dissolution time and standard deviations of the dissolution results before and after micronization. […] This is valuable improvement provides for more accurate dosing of mirtazapine.

| Compound | solubility in water [1] | dissolution profile [2] |
| --- | --- | --- |
| CN1CCN2c3ncccc3Cc3ccccc3C2C1 (centres unmarked) [Mirtazapine, 1,2,3,4,10,14b-hexahydro-2-methyl-pyrazino [2,1-a]pyrido[2,3-c][2] benzazepine] | essentially insoluble in water |  |
| CN1CCN2c3ncccc3Cc3ccccc3C2C1 (centres unmarked) [micronized mirtazapine] |  | superior dissolution profile; also recorded: more stable and reproducible dissolution profile |
